“Also recorded” adds a separate entry of the source.
Biological target: T1, porcine pancreatic lipase (PPL) (Sus scrofa, UniProt P00591)
T1 construct: purchased Sigma Aldrich Inc. (St. Louis, Mo.)
T1 sequence (P00591 1-450): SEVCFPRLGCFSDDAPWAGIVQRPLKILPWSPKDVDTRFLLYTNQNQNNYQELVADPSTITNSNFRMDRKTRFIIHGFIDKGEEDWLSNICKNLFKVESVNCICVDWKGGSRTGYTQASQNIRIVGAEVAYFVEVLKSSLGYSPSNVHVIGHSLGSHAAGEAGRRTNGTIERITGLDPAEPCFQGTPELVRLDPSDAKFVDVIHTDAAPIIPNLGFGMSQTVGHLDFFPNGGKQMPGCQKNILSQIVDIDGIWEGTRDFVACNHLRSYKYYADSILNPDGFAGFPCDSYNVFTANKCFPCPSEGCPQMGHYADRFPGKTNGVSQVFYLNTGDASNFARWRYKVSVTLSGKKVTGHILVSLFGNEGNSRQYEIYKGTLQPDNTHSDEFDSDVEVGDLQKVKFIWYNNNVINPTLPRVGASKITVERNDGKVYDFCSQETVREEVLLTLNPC
Assay: Enzymatic degradation of PS20 by PPL, 4.5 hour digestion, PS20 by RP-ELSD
Assay type: biochemical
Conditions: for decrease in PS20: 0.02% PS20, pH 5.5, 15 μg/mL PPL 4.5 hours room temperature, excipient 15% w/v (cyclodextrins 106 mM); for inhibitory effect on enzymatic PS20 degradation (in words): 0.02% PS20, 15 μg/mL PPL 4.5 hours, excipient 15% w/v (methionine 10 mg/mL)
Procedure: Polysorbate concentration was determined using reverse phase ultra-performance liquid chromatography using evaporative light scattering detection (RP-ELSD). Samples were analyzed using an Agilent 1100 series high performance liquid chromatography system (HPLC) fitted with a Waters Oasis MAX cartridge column (20×2.1 mm, 30 μm particle size). The HPLC system was set up with a switching valve directing column flow-through to either waste or a Varian 380-LC evaporative light scattering detector set to 100° C. The mobile phases consisted of 2% formic acid in water (Pump A) and 2% formic acid in isopropanol (Pump B). The pump gradient was isocratic at 10% pump B during equilibration, linear to 20% pump B for 1 minute, isocratic at 20% pump B for 2.4 minutes, linear to 100% pump B for 0.1 minutes, isocratic at 100% pump B for 1.1 minutes, linear to 10% pump B for 0.1 minutes, and finally isocratic at 10% pump B for 1.9 minutes. The switching valve directed column flow-through to waste at the beginning of every injection, and then directed flow to the detector after 2.4 minutes until the end of the gradient. In order to quantitate the PS20 concentration, a standard curve was generated by injecting 20 μL of solutions containing between 0% w/v and 0.4% w/v PS20.
Several excipients were tested for their ability to protect PS20 against enzymatic hydrolysis including HP-α-CD, HP-β-CD, HP-γ-CD, SBE-β-CD, PVP, PEG 1500, sucrose, and methionine. Solutions of each excipient in pH 5.5 buffer were prepared containing a final concentration of 0.02% PS20 after enzyme addition. The concentration of HP-α-CD, HP-β-CD, HP-γ-CD, and SBE-β-CD in the excipient solutions was 106 mM. […] The remaining excipients (PVP, PEG 1500, sucrose) were added to 15% w/v to match the % w/v of HP-β-CD. Samples were digested with 15 μg/mL PPL enzyme for 4.5 hours at room temperature, followed by 30 minutes of heat inactivation at 85° C. Each sample was analyzed for PS20 concentration using high performance liquid chromatography with an inline evaporative light scattering detector. Samples were then placed at 5° C. overnight to allow for the formation of particles and were analyzed for visible and subvisible particles as described previously.
The effect of the HP-β-CD concentration at different PS20 concentrations on the enzymatic degradation of PS20 was assessed to identify optimal concentrations for inhibition of enzymatic PS20 degradation. To evaluate the dependence of PS20 degradation on HP-β-CD concentration, the PS20 content was determined using RP-ELSD for triplicate samples containing different HP-β-CD concentrations at various PS20 concentrations. Samples containing 0.005% (FIG. 14A), 0.02% (FIG. 14B), 0.1% (FIG. 14C), and 0.4% PS20 (FIG. 14D) were digested using 15 μg/mL of PPL enzyme for 4.5 hours at room temperature in protein-free samples containing no excipient (control), 0, 0.5, 5, and 15% (w/v) HP-β-CD. PPL was added to each of the treatment solutions at a ratio of 75 […], with an equivalent volume of buffer added to the control solutions to determine the effect of HP-β-CD to polysorbate ratio on enzymatic degradation. Digestion was stopped by heat inactivation in an 85° C. water bath for 30 minutes. Each sample was analyzed for PS20 concentration using high performance liquid chromatography with an inline evaporative light scattering detector as described above. Samples were then placed at 5° C. overnight to allow for the formation of particles and placed on ice during analysis for visible and subvisible particles as described above.

Molecule: 2-hydroxypropyl-α-cyclodextrin [HP-α-CD]
- decrease in PS20: 1%
- inhibitory effect on enzymatic PS20 degradation (in words): significant inhibitory effects; also recorded: able to prevent enzymatic degradation of PS20

Molecule: 2-hydroxypropyl-γ-cyclodextrin [HP-γ-CD]
- inhibitory effect on enzymatic PS20 degradation (in words): able to prevent enzymatic degradation of PS20

Molecule: OC[C@H]1O[C@@](CO)(O[C@H]2O[C@H](CO)[C@@H](O)[C@H](O)[C@H]2O)[C@@H](O)[C@@H]1O [sucrose, reference compound]
- decrease in PS20: 58%
- inhibitory effect on enzymatic PS20 degradation (in words): does not have an inhibitory effect

Molecule: 2-hydroxypropyl-β-cyclodextrin [HP-β-CD]
- HP-β-CD concentration required to fully inhibit PS20 degradation (0.005% PS20, PPL 4.5 hours): 0.5%
- decrease in PS20: 7%
- inhibitory effect on enzymatic PS20 degradation (in words): significant inhibitory effects; also recorded: able to prevent enzymatic degradation of PS20
- HP-β-CD concentration required to fully inhibit PS20 degradation (0.1% PS20, PPL 4.5 hours): 15%
- HP-β-CD:PS20 ratio required to inhibit enzymatic PS20 degradation (PPL 4.5 hours, across PS20 and HP-β-CD concentrations): ≥ 37.5 w/w
- PS20 remaining (Relative %) ([HP-β-CD]/[PS20] wt/wt ratio 0.5 (mole ratio 0.4), PPL 4.5 hours): 41.4 Relative %
- PS20 remaining (Relative %) ([HP-β-CD]/[PS20] wt/wt ratio 1.25 (mole ratio 1.1), PPL 4.5 hours): 41.2 Relative %
- PS20 remaining (Relative %) ([HP-β-CD]/[PS20] wt/wt ratio 2.5 (mole ratio 2.2), PPL 4.5 hours): 44.0 Relative %
- PS20 remaining (Relative %) ([HP-β-CD]/[PS20] wt/wt ratio 5 (mole ratio 4.35), PPL 4.5 hours): 65.3 Relative %
- PS20 remaining (Relative %) ([HP-β-CD]/[PS20] wt/wt ratio 12.5 (mole ratio 10.9), PPL 4.5 hours): 86.4 Relative %
- PS20 remaining (Relative %) ([HP-β-CD]/[PS20] wt/wt ratio 25 (mole ratio 21.8), PPL 4.5 hours): 90.3 Relative %
- PS20 remaining (Relative %) ([HP-β-CD]/[PS20] wt/wt ratio 37.5 (mole ratio 32.6), PPL 4.5 hours): 106.7 Relative %
- PS20 remaining (Relative %) ([HP-β-CD]/[PS20] wt/wt ratio 50 (mole ratio 43.5), PPL 4.5 hours): 98.6 Relative %
- PS20 remaining (Relative %) ([HP-β-CD]/[PS20] wt/wt ratio 100 (mole ratio 87.0), PPL 4.5 hours): 93.9 Relative %
- PS20 remaining (Relative %) ([HP-β-CD]/[PS20] wt/wt ratio 150 (mole ratio 130.5), PPL 4.5 hours): 108.3 Relative %
- PS20 remaining (Relative %) ([HP-β-CD]/[PS20] wt/wt ratio 250 (mole ratio 217.6), PPL 4.5 hours): 101.9 Relative %
- PS20 remaining (Relative %) ([HP-β-CD]/[PS20] wt/wt ratio 750 (mole ratio 652.7), PPL 4.5 hours): 104.2 Relative %
- PS20 remaining (Relative %) ([HP-β-CD]/[PS20] wt/wt ratio 1000 (mole ratio 870.2), PPL 4.5 hours): 104.3 Relative %
- PS20 remaining (Relative %) ([HP-β-CD]/[PS20] wt/wt ratio 3000 (mole ratio 2610.6), PPL 4.5 hours): 112.4 Relative %

Reference: patent US10933141B2, “Formulations with reduced degradation of polysorbate” (Genentech, Inc., priority 2015, dated 2021)
